Reference: patent US9694016B2 (Novartis AG, priority 2013, dated 2017)
pIC50: −log10 of the molar value.

Each compound was assayed against b-Raf (V600E) (Homo sapiens (Human), UniProt P15056, V600E). Conditions: read-out: b-Raf IC-50; AlphaScreen, 60 min pre-incubation, 3 hours reaction.
b-Raf (V600E), sequence (P15056 whole entry V600E): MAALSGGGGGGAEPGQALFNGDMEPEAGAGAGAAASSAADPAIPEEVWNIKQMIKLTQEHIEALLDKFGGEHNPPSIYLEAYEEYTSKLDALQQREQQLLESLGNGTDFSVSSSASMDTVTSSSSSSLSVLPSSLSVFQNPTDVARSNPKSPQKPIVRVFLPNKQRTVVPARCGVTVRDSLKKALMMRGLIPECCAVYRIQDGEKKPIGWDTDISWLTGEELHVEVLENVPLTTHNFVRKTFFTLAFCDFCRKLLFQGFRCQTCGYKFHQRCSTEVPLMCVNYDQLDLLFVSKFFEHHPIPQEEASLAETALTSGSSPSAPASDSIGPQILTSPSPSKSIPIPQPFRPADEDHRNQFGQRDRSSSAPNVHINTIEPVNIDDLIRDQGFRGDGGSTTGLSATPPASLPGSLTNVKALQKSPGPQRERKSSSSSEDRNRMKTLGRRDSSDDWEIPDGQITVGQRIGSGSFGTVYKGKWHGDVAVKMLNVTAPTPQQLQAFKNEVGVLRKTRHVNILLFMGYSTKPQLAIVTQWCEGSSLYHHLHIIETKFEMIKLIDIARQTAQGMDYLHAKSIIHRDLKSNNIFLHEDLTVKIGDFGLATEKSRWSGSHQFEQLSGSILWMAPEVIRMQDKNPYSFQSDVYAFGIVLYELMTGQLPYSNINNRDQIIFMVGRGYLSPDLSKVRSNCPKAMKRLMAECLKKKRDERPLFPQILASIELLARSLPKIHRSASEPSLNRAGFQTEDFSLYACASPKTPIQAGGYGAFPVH

SMILES | pIC50
Cc1ncc(NC(=O)c2cccc(C(F)(F)F)c2)cc1-c1cc(N2CCOCC2)nc(N[C@H](C)CO)n1 [Example 748, (R)—N-(5-(2-((1-hydroxypropan-2-yl)amino)-6-morpholinopyrimidin-4-yl)-6-methylpyridin-3-yl)-3-(trifluoromethyl)benzamide] | 8.72
Cc1ccc(NC(=O)c2ccnc(C(C)(C)C#N)c2)cc1-c1cc(N2CCOCC2)nc(N[C@H](C)CO)n1 [Example 749, (R)-2-(2-cyanopropan-2-yl)-N-(3-(2-((1-hydroxypropan-2-yl)amino)-6-morpholinopyrimidin-4-yl)-4-methylphenyl)isonicotinamide] | 8.72
Cc1ncc(NC(=O)c2ccnc(C(C)(C)C#N)c2)cc1-c1cc(N2CCOCC2)nc(NC(C)(C)CO)n1 [Example 750, 2-(2-cyanopropan-2-yl)-N-(5-(2-((1-hydroxy-2-methylpropan-2-yl)amino)-6-morpholinopyrimidin-4-yl)-6-methylpyridin-3-yl)isonicotinamide] | 7.65
Cc1ccc(NC(=O)c2ccnc(C(C)(C)C#N)c2)cc1-c1cc(N2CCOCC2)nc(NC(C)(C)CO)n1 [Example 751, 2-(2-cyanopropan-2-yl)-N-(3-(2-((1-hydroxy-2-methylpropan-2-yl)amino)-6-morpholinopyrimidin-4-yl)-4-methylphenyl)isonicotinamide] | 8.85
Cc1ncc(NC(=O)c2cccc(C(F)(F)F)c2)cc1-c1cc(N2CCOCC2)nc(NC(C)(C)CO)n1 [Example 752, N-(5-(2-((1-hydroxy-2-methylpropan-2-yl)amino)-6-morpholinopyrimidin-4-yl)-6-methylpyridin-3-yl)-3-(trifluoromethyl)benzamide] | 8.74
Cc1ncc(NC(=O)c2ccnc(C(C)(C)C#N)c2)cc1-c1cc(N2CCOCC2)nc(NC2(CO)CCOCC2)n1 [Example 753, 2-(2-cyanopropan-2-yl)-N-(5-(2-((4-(hydroxymethyl)tetrahydro-2H-pyran-4-yl)amino)-6-morpholinopyrimidin-4-yl)-6-methylpyridin-3-yl)isonicotinamide] | 7.51
Cc1ccc(NC(=O)c2ccnc(C(C)(C)C#N)c2)cc1-c1cc(N2CCOCC2)nc(NC2(CO)CCOCC2)n1 [Example 754, 2-(2-cyanopropan-2-yl)-N-(3-(2-((4-(hydroxymethyl)tetrahydro-2H-pyran-4-yl)amino)-6-morpholinopyrimidin-4-yl)-4-methylphenyl)isonicotinamide] | 8.47
Cc1ccc(NC(=O)c2ccnc(C(C)(C)C#N)c2)cc1-c1cc(N2CCOCC2)nc(N(C)C)n1 [Example 755, 2-(2-cyanopropan-2-yl)-N-(3-(2-(dimethylamino)-6-morpholinopyrimidin-4-yl)-4-methylphenyl)isonicotinamide] | 7.75
Cc1ccc(NC(=O)c2ccnc(C(C)(F)F)c2)cc1-c1cc(N2CCOCC2)nc(N(C)C)n1 [Example 756, 2-(1,1-difluoroethyl)-N-(3-(2-(dimethylamino)-6-morpholinopyrimidin-4-yl)-4-methylphenyl)isonicotinamide] | 8.38
Cc1ccc(NC(=O)c2ccnc(C(C)C)c2)cc1-c1cc(N2CCOCC2)nc(N(C)C)n1 [Example 757, N-(3-(2-(dimethylamino)-6-morpholinopyrimidin-4-yl)-4-methylphenyl)-2-isopropylisonicotinamide] | 8.85
Cc1ccc(NC(=O)c2ccnc(C(F)(F)F)c2)cc1-c1cc(N2CCOCC2)nc(N(C)C)n1 [Example 758, N-(3-(2-(dimethylamino)-6-morpholinopyrimidin-4-yl)-4-methylphenyl)-2-(trifluoromethyl)isonicotinamide] | 8.55
Cc1ccc(NC(=O)c2ccnc(S(C)(=O)=O)c2)cc1-c1cc(N2CCOCC2)nc(N(C)C)n1 [Example 759, N-(3-(2-(dimethylamino)-6-morpholinopyrimidin-4-yl)-4-methylphenyl)-2-(methylsulfonyl)isonicotinamide] | 7.94
Cc1ncc(NC(=O)c2cccc(C(F)(F)F)c2)cc1-c1cc(N2CCOCC2)nc(N(C)C)n1 [Example 760, N-(5-(2-(dimethylamino)-6-morpholinopyrimidin-4-yl)-6-methylpyridin-3-yl)-3-(trifluoromethyl)benzamide] | 7.95
CCOc1nc(-c2cc(NC(=O)c3ccnc(C(C)(F)F)c3)ccc2C)cc(N2CCOCC2)n1 [Example 761, 2-(1,1-difluoroethyl)-N-(3-(2-ethoxy-6-morpholinopyrimidin-4-yl)-4-methylphenyl)isonicotinamide] | 9.05
CCOc1nc(-c2cc(NC(=O)c3ccnc(C(F)(F)F)c3)ccc2C)cc(N2CCOCC2)n1 [Example 762, N-(3-(2-ethoxy-6-morpholinopyrimidin-4-yl)-4-methylphenyl)-2-(trifluoromethyl)isonicotinamide] | 9.15
CCOc1nc(-c2cc(NC(=O)c3ccnc(C(C)(C)C#N)c3)ccc2C)cc(N2CCOCC2)n1 [Example 764, 2-(2-cyanopropan-2-yl)-N-(3-(2-ethoxy-6-morpholinopyrimidin-4-yl)-4-methylphenyl)isonicotinamide] | 8.47
Cc1ccc(NC(=O)c2cccc(C(F)(F)F)c2)cc1-c1cc(N2CCOCC2)nc(N2CC(O)C2)n1 [Example 765, N-(3-(2-(3-hydroxyazetidin-1-yl)-6-morpholinopyrimidin-4-yl)-4-methylphenyl)-3-(trifluoromethyl)benzamide] | 9.00
Cc1ccc(C(=O)Nc2cccc(C(F)(F)F)c2)cc1-c1cc(N2CCOCC2)nc(N2CC(O)C2)n1 [Example 766, 3-(2-(3-hydroxyazetidin-1-yl)-6-morpholinopyrimidin-4-yl)-4-methyl-N-(3-(trifluoromethyl)phenyl)benzamide] | 8.74
Cc1ncc(NC(=O)c2ccnc(C(C)(C)C#N)c2)cc1-c1cc(N2CCOCC2)nc(N2CC(O)C2)n1 [Example 767, 2-(2-cyanopropan-2-yl)-N-(5-(2-(3-hydroxyazetidin-1-yl)-6-morpholinopyrimidin-4-yl)-6-methylpyridin-3-yl)isonicotinamide] | 7.32
Cc1ncc(NC(=O)c2cccc(C(F)(F)F)c2)cc1-c1cc(N2CCOCC2)nc(N2CC(O)C2)n1 [Example 768, N-(5-(2-(3-hydroxyazetidin-1-yl)-6-morpholinopyrimidin-4-yl)-6-methylpyridin-3-yl)-3-(trifluoromethyl)benzamide] | 7.95
Cc1ccc(NC(=O)c2ccnc(C(C)(C)C#N)c2)cc1-c1cc(N2CCOCC2)nc(N2CC(O)C2)n1 [Example 769] | 7.99
Cc1ncc(NC(=O)c2cccc(C(F)F)c2)cc1-c1cc(N2CCOCC2)nc(N2CC(O)C2)n1 [Example 770, 3-(difluoromethyl)-N-(5-(2-(3-hydroxyazetidin-1-yl)-6-morpholinopyrimidin-4-yl)-6-methylpyridin-3-yl)benzamide] | 8.28
Cc1ccc(NC(=O)c2ccnc(C(C)C)c2)cc1-c1cc(N2CCOCC2)nc(N2CC(O)C2)n1 [Example 771, N-(3-(2-(3-hydroxyazetidin-1-yl)-6-morpholinopyrimidin-4-yl)-4-methylphenyl)-2-isopropylisonicotinamide] | 8.60
Cc1ccc(NC(=O)c2ccnc(C(C)(F)F)c2)cc1-c1cc(N2CCOCC2)nc(N2CC(O)C2)n1 [Example 772, 2-(1,1-difluoroethyl)-N-(3-(2-(3-hydroxyazetidin-1-yl)-6-morpholinopyrimidin-4-yl)-4-methylphenyl)isonicotinamide] | 8.72
